Where a name gives a salt, the structure may show the parent alone.
Biological target: T1, Keap1 (321-609) Kelch domain / TAMRA-labeled NRF2 peptide (ETGE motif) (Homo sapiens, UniProt Q14145)
T1 construct: the Kelch domain (321-609) of Keap1 is used
Assay: NRF2-Keap1 FP Assay
Type: binding
Settings: Keap1 (321-609) 20 nM, Tamra labeled peptide 8 nM
From the text: One model for the NRF2-Keap1 interaction is through two binding sites in the Neh2 domain on NRF2. The two sites are referred to as the DLG binding motif (latch domain, uM affinity) and the ETGE binding motif (hinge domain, nM affinity). The Keap1 protein consists of an N-terminal region (NTR), a broad complex, tramtrack, and brick a' brac domain (BTB), an intervening region (IVR), a double glycine repeat domain (DGR or Kelch), and a C-terminal region. The DLG and ETGE motifs of NRF2's Neh2 domain bind to the Kelch domain of Keap1 at different affinities. In the Keap1 Kelch fluorescence polarization (FP) assay, a TAMRA-labeled 16mer peptide (AFFAQLQLDEETGEFL) containing the ETGE motif of NRF2 and the Kelch domain (321-609) of Keap1 is used. The assay determines if a compound interferes with the binding between Keap1 […] and the TAMRA-labeled peptide. Binding of TAMRA-labeled NRF2 peptide to Keap1 (321-609) results in a high FP signal. If a compound interferes with the binding between the peptide and the protein, it will cause the assay signal to decrease. Thus, assay signal is inversely proportional to binding inhibition.
100 nl of 100× compound dose response curves (serial 3-fold dilutions) in DMSO were stamped using an Echo liquid handling system (Labcyte) into 384-well low volume black assay plates (Greiner, #784076), with DMSO in columns 6 and 18. The top concentration of compound was located in columns 1 and 13. Keap1 (321-609) was diluted to 40 nM (2×) in 1× assay buffer (50 mM Tris, pH 8.0, 100 mM NaCl, 5 mM MgCl2, 1 mM DTT, 2 mM CHAPS, and 0.005% BSA) and 5 ul was added using a Multidrop Combi (Thermo Electron Corporation) equipped with a metal tip dispenser to all wells of the compound plate, except column 18. Column 18 received only 5 ul of assay buffer. Immediately, 5 uL of 16 nM (2×) of Tamra labeled peptide (AFFAQLQLDEETGEFL, 21st Century Biochemicals) was added to all wells of the plate. The plates were spun at 500 rpm for 1 min, incubated for 1 hr at room temperature, and read on an Analyst GT (Molecular Devices) equipped with excitation (530/25 nm) and emission (580/10 nm) filters designed for Tamra probes. A 561 nm dichroic mirror was also used in the Analyst. The final assay concentrations of Keap1l (321-609) and Tamra labeled peptide were 20 nM and 8 nM, respectively. Fluorescence measurements, represented as mP, were used in the transformation of the data. Compound activity was calculated based on percent inhibition, normalized against controls in the assay (Control 1 contains the Tamra peptide and Keap1 (321-609) together (0% response) and control 2 contains the Tamra peptide alone (100% response)). Data analysis was handled using the software package Abase XE (Surrey, United Kingdom. The % inhibition values were calculated by the equation:
100−(100*((compound response−average control 2)/(average control 1−average control2))).
For calculation of pIC50s, Abase XE used a four parameter equation.
IC50s<1 nM (+++++), IC50s 1 nM-10 nM (++++), IC50s 10-100 nM (+++), IC50s 100 nM-1 μM (++), IC50s 1-10 μM (+), IC50s>10 μM (−), or were not determined (ND).

T1 sequence (Q14145 321-609): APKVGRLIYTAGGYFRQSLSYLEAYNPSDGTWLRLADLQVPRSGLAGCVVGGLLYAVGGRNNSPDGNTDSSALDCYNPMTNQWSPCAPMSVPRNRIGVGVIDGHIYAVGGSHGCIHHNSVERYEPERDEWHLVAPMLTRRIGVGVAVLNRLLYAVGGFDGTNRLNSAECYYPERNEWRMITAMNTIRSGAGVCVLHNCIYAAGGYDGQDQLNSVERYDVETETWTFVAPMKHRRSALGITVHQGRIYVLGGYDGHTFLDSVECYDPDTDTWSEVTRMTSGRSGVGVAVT

| EC50 [nM] | Structure (SMILES) |
| --- | --- |
| 100 to 1000 | CN(Cc1cccc(-n2ncc(C(=O)O)c2[C@@H]2C[C@H]2c2cn(C)nn2)c1)S(=O)(=O)c1ccccc1 (racemic) [Example 48, 5-((trans)-2-(1-methyl-1H-1,2,3-triazol-4-yl)cyclopropyl)-1-(3-((N-methylphenylsulfonamido)methyl)phenyl)-1H-pyrazole-4-carboxylic acid] |
| 100 to 1000 | CCCCCCN(Cc1cccc(-n2ncc(C(=O)O)c2[C@@H]2C[C@H]2c2cn(C)nn2)c1)S(=O)(=O)c1ccccc1Oc1ccccc1 (racemic) [Example 49, 1-(3-((N-hexyl-2-phenoxyphenylsulfonamido)methyl)phenyl)-5-((trans)-2-(1-methyl-1H-1,2,3-triazol-4-yl)cyclopropyl)-1H-pyrazole-4-carboxylic acid] |
| 100 to 1000 | CCCN(Cc1cccc(-n2ncc(C(=O)O)c2[C@@H]2C[C@H]2c2cn(C)nn2)c1)S(=O)(=O)c1ccccc1C (racemic) [Example 50, 5-((trans)-2-(1-methyl-1H-1,2,3-triazol-4-yl)cyclopropyl)-1-(3-((2-methyl-N-propylphenylsulfonamido)methyl)phenyl)-1H-pyrazole-4-carboxylic acid] |
| 100 to 1000 | CN(Cc1cccc(-n2ncc(C(=O)O)c2[C@@H]2C[C@H]2c2cn(C)nn2)c1)S(=O)(=O)c1cccc2cccnc12 (racemic) [Example 51, 5-((trans)-2-(1-methyl-1H-1,2,3-triazol-4-yl)cyclopropyl)-1-(3-((N-methylquinoline-8-sulfonamido)methyl)phenyl)-1H-pyrazole-4-carboxylic acid] |
| 100 to 1000 | COc1ccccc1S(=O)(=O)NCc1cccc(-n2ncc(C(=O)O)c2[C@@H]2C[C@H]2c2cn(C)nn2)c1 (racemic) [Example 52, 1-(3-((2-methoxyphenylsulfonamido)methyl)phenyl)-5-((trans)-2-(1-methyl-1H-1,2,3-triazol-4-yl)cyclopropyl)-1H-pyrazole-4-carboxylic acid] |
| 1000 to 10000 | COc1ccccc1S(=O)(=O)N(Cc1cccc(-n2ncc(C(=O)O)c2[C@@H]2C[C@H]2c2cn(C)nn2)c1)C1CC1 (racemic) [Example 53, 1-(3-((N-cyclopropyl-2-methoxyphenylsulfonamido)methyl)phenyl)-5-((trans)-2-(1-methyl-1H-1,2,3-triazol-4-yl)cyclopropyl)-1H-pyrazole-4-carboxylic acid] |
| 100 to 1000 | CCOc1ccc(Br)cc1CN(C)Cc1cccc(-n2ncc(C(=O)O)c2[C@@H]2C[C@H]2c2cn(C)nn2)c1 (racemic) [Example 54, 1-(3-(((5-bromo-2-ethoxybenzyl)(methyl)amino)methyl)phenyl)-5-((trans)-2-(1-methyl-1H-1,2,3-triazol-4-yl)cyclopropyl)-1H-pyrazole-4-carboxylic acid trifluoroacetate] |
| 1000 to 10000 | CCCCCCN(Cc1cccc(-n2ncc(C(=O)O)c2[C@@H]2C[C@H]2c2cnn(C)c2)c1)S(=O)(=O)c1ccccc1C (racemic) [Example 56] |
| 100 to 1000 | Cc1cc([C@@H]2C[C@H]2c2c(C(=O)O)cnn2-c2cccc(CN3C[C@@H](C)Cc4cc(C(F)(F)F)ccc4S3(=O)=O)c2)on1 (racemic) [Example 57, 1-(3-(((S)-4-Methyl-1,1-dioxido-7-(trifluoromethyl)-4,5-dihydrobenzo[f][1,2]thiazepin-2(3H)-yl)methyl)phenyl)-5-(trans-2-(3-methylisoxazol-5-yl)cyclopropyl)-1H-pyrazole-4-carboxylic acid] |
| 10 to 100 | CCCCCCN(Cc1cccc(-n2ncc(C(=O)O)c2[C@@H]2C[C@H]2c2cn(C)nn2)c1)S(=O)(=O)c1ccc(Oc2ccccc2)cc1 (relative stereo) [Example 36, 1-(3-((N-hexyl-4-phenoxyphenylsulfonamido)methyl)phenyl)-5-((trans)-2-(1-methyl-1H-1,2,3-triazol-4-yl)-cyclopropyl)-1H-pyrazole-4-carboxylic acid] |
| 10 to 100 | CN(Cc1cccc(-n2ncc(C(=O)O)c2[C@@H]2C[C@H]2c2cn(C)nn2)c1)S(=O)(=O)c1ccccc1Oc1ccccc1 (relative stereo) [Example 38, 5-((trans)-2-(1-methyl-1H-1,2,3-triazol-4-yl)cyclo-propyl)-1-(3-((N-methyl-2-phenoxyphenyl-sulfonamido)-methyl)phenyl)-1H-pyrazole-4-carboxylic acid] |
| 10 to 100 | CN(Cc1cccc(-n2ncc(C(=O)O)c2[C@@H]2C[C@H]2c2cn(C)nn2)c1)S(=O)(=O)c1ccc(-c2ccccc2)cc1 (relative stereo) [Example 39, 5-((trans)-2-(1-methyl-1H-1,2,3-triazol-4-yl)cyclo-propyl)-1-(3-((N-methyl-[1,1′-biphenyl]-4-ylsulfonamido)-methyl)phenyl)-1H-pyrazole-4-carboxylic acid] |
| 1 to 10 | CC(c1cccc(-n2ncc(C(=O)O)c2[C@@H]2C[C@H]2c2cn(C)nn2)c1)N1C[C@@H](C)Cc2ccc(C(F)(F)F)cc2S1(=O)=O (single isomer, unassigned) [Example 6, 1-(3-((R or S)-1-((S)-4-Methyl-1,1-dioxido-8-(trifluoromethyl)-4,5-dihydrobenzo[f][1,2]thiazepin-2(3H)-yl)ethyl)phenyl)-5-((1R,2R)-2-(1-methyl-1H-1,2,3-triazol-4-yl)cyclopropyl)-1H-pyrazole-4-carboxylic acid] |
| 1 to 10 | CC[C@@H]1CN(Cc2cccc(-n3ncc(C(=O)O)c3[C@@H]3C[C@H]3c3cn(C)nn3)c2)S(=O)(=O)c2ccccc2O1 [Example 3] |
| 1 to 10 | CC[C@H]1Cc2ccccc2S(=O)(=O)N(Cc2cccc(-n3ncc(C(=O)O)c3[C@@H]3C[C@H]3c3cn(C)nn3)c2)C1 [Example 4] |
| 10 to 100 | CC[C@@H]1Cc2ccccc2CN(Cc2cccc(-n3ncc(C(=O)O)c3[C@@H]3C[C@H]3c3cn(C)nn3)c2)C1 [Example 10] |
| 10 to 100 | CC[C@H]1Cc2ccccc2CN(Cc2cccc(-n3ncc(C(=O)O)c3[C@@H]3C[C@H]3c3cn(C)nn3)c2)C1 [Example 11] |
| 1000 to 10000 | CCC1c2ccccc2OC(C)(C)CN1Cc1cccc(-n2ncc(C(=O)O)c2[C@@H]2C[C@H]2c2cn(C)nn2)c1 (stereo partly drawn) [Example 12] |
| 10 to 100 | C[C@H]1Cc2ccccc2S(=O)(=O)N(Cc2cccc(-n3ncc(C(=O)O)c3[C@@H]3C[C@H]3c3cn(C)nn3)c2)C1 [Example 15, 1-(3-(((S)-4-methyl-1,1-dioxido-4,5-dihydrobenzo[f][1,2]thiazepin-2(3H)-yl)methyl)phenyl)-5-((trans)-2-(1-methyl-1H-1,2,3-triazol-4-yl)cyclopropyl)-1H-pyrazole-4-carboxylic acid] |
| < 1 | CC[C@H]1Cc2ccc(C(F)(F)F)cc2S(=O)(=O)N(Cc2cccc(-n3ncc(C(=O)O)c3[C@@H]3C[C@H]3c3cn(C)nn3)c2)C1 [Example 20, 1-(3-(((S)-4-ethyl-1,1-dioxido-8-(trifluoromethyl)-4,5-dihydrobenzo[f][1,2]thiazepin-2(3H)-yl)methyl)phenyl)-5-((1R,2R)-2-(1-methyl-1H-1,2,3-triazol-4-yl)cyclopropyl)-1H-pyrazole-4-carboxylic acid] |
| < 1 | CCCC[C@H]1Cc2ccc(C(F)(F)F)cc2S(=O)(=O)N(Cc2cccc(-n3ncc(C(=O)O)c3[C@@H]3C[C@H]3c3cn(C)nn3)c2)C1 [Example 21, 1-(3-(((S)-4-butyl-1,1-dioxido-8-(trifluoromethyl)-4,5-dihydrobenzo[f][1,2]thiazepin-2(3H)-yl)methyl)phenyl)-5-((1R,2R)-2-(1-methyl-1H-1,2,3-triazol-4-yl)cyclopropyl)-1H-pyrazole-4-carboxylic acid] |
